Source: PubChem BioAssay (NCI)
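Five concentrations, 48 hours, 96-well plates. GI50: concentration for 50% inhibition of growth. TGI marks complete inhibition of growth.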

Test system: OVCAR-4 ovarian
Assay: growth of human tumour cells (NCI), 48 h

| Compound | GI50 | TGI |
| --- | --- | --- |
| COc1cc(Cl)cc(-c2nn(-c3cccc(NC(=O)c4ccc(N5CCOCC5)c(C(F)(F)F)c4)c3)cc2-c2ccncc2)c1 | 39.7 µM | > 100 µM |
| OC[C@H]1O[C@@H]2O[C@@](COCc3ccccc3)([C@H](OCc3ccccc3)[C@H]2O)[C@@H]1OCc1ccccc1 | – | 10.8 µM |
| Nc1ncc(-c2ccc3ncnc(Nc4ccc(F)c(Cl)c4)c3c2)cn1 | 1.32 µM | 2.97 µM |

Test system: HOP-62 NSCLC
Assay: growth of human tumour cells (NCI), 48 h

| Compound | GI50 | TGI |
| --- | --- | --- |
| O=C(NC[C@H](O)CN1CCc2ccccc2C1)c1cc(NC2COC2)ncn1 | 37.7 µM | > 100 µM |
| COc1cc(Cl)cc(-c2nn(-c3cccc(NC(=O)c4ccc(N5CCOCC5)c(C(F)(F)F)c4)c3)cc2-c2ccncc2)c1 | 62.5 µM | > 100 µM |
| OC[C@H]1O[C@@H]2O[C@@](COCc3ccccc3)([C@H](OCc3ccccc3)[C@H]2O)[C@@H]1OCc1ccccc1 | – | 32.6 µM |
| Nc1ncc(-c2ccc3ncnc(Nc4ccc(F)c(Cl)c4)c3c2)cn1 | 1.7 µM | 4.45 µM |

Test system: IGROV1 ovarian
Assay: growth of human tumour cells (NCI), 48 h

| Compound | GI50 | TGI |
| --- | --- | --- |
| O=C(NC[C@H](O)CN1CCc2ccccc2C1)c1cc(NC2COC2)ncn1 | 15.7 µM | 39.9 µM |
| COc1cc(Cl)cc(-c2nn(-c3cccc(NC(=O)c4ccc(N5CCOCC5)c(C(F)(F)F)c4)c3)cc2-c2ccncc2)c1 | > 100 µM | > 100 µM |
| OC[C@H]1O[C@@H]2O[C@@](COCc3ccccc3)([C@H](OCc3ccccc3)[C@H]2O)[C@@H]1OCc1ccccc1 | – | 27 µM |
| Nc1ncc(-c2ccc3ncnc(Nc4ccc(F)c(Cl)c4)c3c2)cn1 | 0.258 µM | 2.43 µM |

Test system: UO-31 renal
Assay: growth of human tumour cells (NCI), 48 h

| Compound | GI50 | TGI |
| --- | --- | --- |
| O=C(NC[C@H](O)CN1CCc2ccccc2C1)c1cc(NC2COC2)ncn1 | 11.8 µM | 97.1 µM |
| COc1cc(Cl)cc(-c2nn(-c3cccc(NC(=O)c4ccc(N5CCOCC5)c(C(F)(F)F)c4)c3)cc2-c2ccncc2)c1 | 4.5 µM | > 100 µM |
| OC[C@H]1O[C@@H]2O[C@@](COCc3ccccc3)([C@H](OCc3ccccc3)[C@H]2O)[C@@H]1OCc1ccccc1 | – | 29.4 µM |
| Nc1ncc(-c2ccc3ncnc(Nc4ccc(F)c(Cl)c4)c3c2)cn1 | 0.5 µM | 3.02 µM |

Test system: NCI-H522 lung
Assay: growth of human tumour cells (NCI), 48 h

| Compound | GI50 | TGI |
| --- | --- | --- |
| O=C(NC[C@H](O)CN1CCc2ccccc2C1)c1cc(NC2COC2)ncn1 | 23 µM | 68.3 µM |
| COc1cc(Cl)cc(-c2nn(-c3cccc(NC(=O)c4ccc(N5CCOCC5)c(C(F)(F)F)c4)c3)cc2-c2ccncc2)c1 | 4.72 µM | > 100 µM |
| OC[C@H]1O[C@@H]2O[C@@](COCc3ccccc3)([C@H](OCc3ccccc3)[C@H]2O)[C@@H]1OCc1ccccc1 | – | 31.6 µM |
| Nc1ncc(-c2ccc3ncnc(Nc4ccc(F)c(Cl)c4)c3c2)cn1 | 1.7 µM | 8.92 µM |

Test system: RPMI-8226 leukemia
Assay: growth of human tumour cells (NCI), 48 h

| Compound | GI50 | TGI |
| --- | --- | --- |
| O=C(NC[C@H](O)CN1CCc2ccccc2C1)c1cc(NC2COC2)ncn1 | 4.22 µM | 43.5 µM |
| COc1cc(Cl)cc(-c2nn(-c3cccc(NC(=O)c4ccc(N5CCOCC5)c(C(F)(F)F)c4)c3)cc2-c2ccncc2)c1 | 1.5 µM | > 100 µM |
| OC[C@H]1O[C@@H]2O[C@@](COCc3ccccc3)([C@H](OCc3ccccc3)[C@H]2O)[C@@H]1OCc1ccccc1 | – | 32.4 µM |
| Nc1ncc(-c2ccc3ncnc(Nc4ccc(F)c(Cl)c4)c3c2)cn1 | 2.15 µM | 7.51 µM |

Test system: A498 renal
Assay: growth of human tumour cells (NCI), 48 h

| Compound | GI50 | TGI |
| --- | --- | --- |
| COc1cc(Cl)cc(-c2nn(-c3cccc(NC(=O)c4ccc(N5CCOCC5)c(C(F)(F)F)c4)c3)cc2-c2ccncc2)c1 | 16.2 µM | > 100 µM |
| OC[C@H]1O[C@@H]2O[C@@](COCc3ccccc3)([C@H](OCc3ccccc3)[C@H]2O)[C@@H]1OCc1ccccc1 | – | 32.1 µM |

Test system: CCRF-CEM leukemia
Assay: growth of human tumour cells (NCI), 48 h

| Compound | GI50 | TGI |
| --- | --- | --- |
| O=C(NC[C@H](O)CN1CCc2ccccc2C1)c1cc(NC2COC2)ncn1 | 26.9 µM | > 100 µM |
| COc1cc(Cl)cc(-c2nn(-c3cccc(NC(=O)c4ccc(N5CCOCC5)c(C(F)(F)F)c4)c3)cc2-c2ccncc2)c1 | 3.88 µM | > 100 µM |
| OC[C@H]1O[C@@H]2O[C@@](COCc3ccccc3)([C@H](OCc3ccccc3)[C@H]2O)[C@@H]1OCc1ccccc1 | – | 35.4 µM |
| Nc1ncc(-c2ccc3ncnc(Nc4ccc(F)c(Cl)c4)c3c2)cn1 | 2.86 µM | > 100 µM |

Test system: UACC-257 melanoma
Assay: growth of human tumour cells (NCI), 48 h

| Compound | GI50 | TGI |
| --- | --- | --- |
| O=C(NC[C@H](O)CN1CCc2ccccc2C1)c1cc(NC2COC2)ncn1 | 19.8 µM | 90.4 µM |
| COc1cc(Cl)cc(-c2nn(-c3cccc(NC(=O)c4ccc(N5CCOCC5)c(C(F)(F)F)c4)c3)cc2-c2ccncc2)c1 | 21.7 µM | 69.1 µM |
| OC[C@H]1O[C@@H]2O[C@@](COCc3ccccc3)([C@H](OCc3ccccc3)[C@H]2O)[C@@H]1OCc1ccccc1 | – | 32.2 µM |
| Nc1ncc(-c2ccc3ncnc(Nc4ccc(F)c(Cl)c4)c3c2)cn1 | 13.4 µM | 31.7 µM |

Test system: TK-10 renal
Assay: growth of human tumour cells (NCI), 48 h

| Compound | GI50 | TGI |
| --- | --- | --- |
| O=C(NC[C@H](O)CN1CCc2ccccc2C1)c1cc(NC2COC2)ncn1 | 22 µM | 88.9 µM |
| OC[C@H]1O[C@@H]2O[C@@](COCc3ccccc3)([C@H](OCc3ccccc3)[C@H]2O)[C@@H]1OCc1ccccc1 | – | 33.3 µM |
| Nc1ncc(-c2ccc3ncnc(Nc4ccc(F)c(Cl)c4)c3c2)cn1 | 0.132 µM | 1.42 µM |

Test system: MALME-3M melanoma
Assay: growth of human tumour cells (NCI), 48 h

| Compound | GI50 | TGI |
| --- | --- | --- |
| O=C(NC[C@H](O)CN1CCc2ccccc2C1)c1cc(NC2COC2)ncn1 | 14.1 µM | 68.3 µM |
| COc1cc(Cl)cc(-c2nn(-c3cccc(NC(=O)c4ccc(N5CCOCC5)c(C(F)(F)F)c4)c3)cc2-c2ccncc2)c1 | 28.3 µM | > 100 µM |
| Nc1ncc(-c2ccc3ncnc(Nc4ccc(F)c(Cl)c4)c3c2)cn1 | 1.29 µM | 4.47 µM |

Test system: SF-295 CNS
Assay: growth of human tumour cells (NCI), 48 h

| Compound | GI50 | TGI |
| --- | --- | --- |
| O=C(NC[C@H](O)CN1CCc2ccccc2C1)c1cc(NC2COC2)ncn1 | 14.7 µM | > 100 µM |
| COc1cc(Cl)cc(-c2nn(-c3cccc(NC(=O)c4ccc(N5CCOCC5)c(C(F)(F)F)c4)c3)cc2-c2ccncc2)c1 | 2.21 µM | 14.8 µM |
| OC[C@H]1O[C@@H]2O[C@@](COCc3ccccc3)([C@H](OCc3ccccc3)[C@H]2O)[C@@H]1OCc1ccccc1 | – | 28.8 µM |
| Nc1ncc(-c2ccc3ncnc(Nc4ccc(F)c(Cl)c4)c3c2)cn1 | 2.11 µM | 11 µM |

Test system: NCI-H23 lung
Assay: growth of human tumour cells (NCI), 48 h

| Compound | GI50 | TGI |
| --- | --- | --- |
| O=C(NC[C@H](O)CN1CCc2ccccc2C1)c1cc(NC2COC2)ncn1 | 19.3 µM | > 100 µM |
| COc1cc(Cl)cc(-c2nn(-c3cccc(NC(=O)c4ccc(N5CCOCC5)c(C(F)(F)F)c4)c3)cc2-c2ccncc2)c1 | 30.7 µM | > 100 µM |
| OC[C@H]1O[C@@H]2O[C@@](COCc3ccccc3)([C@H](OCc3ccccc3)[C@H]2O)[C@@H]1OCc1ccccc1 | – | 34.1 µM |
| Nc1ncc(-c2ccc3ncnc(Nc4ccc(F)c(Cl)c4)c3c2)cn1 | 2.81 µM | 39.3 µM |

Test system: HS 578T breast
Assay: growth of human tumour cells (NCI), 48 h

| Compound | GI50 | TGI |
| --- | --- | --- |
| O=C(NC[C@H](O)CN1CCc2ccccc2C1)c1cc(NC2COC2)ncn1 | 19.1 µM | 81.4 µM |
| COc1cc(Cl)cc(-c2nn(-c3cccc(NC(=O)c4ccc(N5CCOCC5)c(C(F)(F)F)c4)c3)cc2-c2ccncc2)c1 | 6.48 µM | > 100 µM |
| OC[C@H]1O[C@@H]2O[C@@](COCc3ccccc3)([C@H](OCc3ccccc3)[C@H]2O)[C@@H]1OCc1ccccc1 | – | 31.7 µM |
| Nc1ncc(-c2ccc3ncnc(Nc4ccc(F)c(Cl)c4)c3c2)cn1 | 1.19 µM | 3.52 µM |

Test system: M14 melanoma
Assay: growth of human tumour cells (NCI), 48 h

| Compound | GI50 | TGI |
| --- | --- | --- |
| O=C(NC[C@H](O)CN1CCc2ccccc2C1)c1cc(NC2COC2)ncn1 | 23 µM | > 100 µM |
| COc1cc(Cl)cc(-c2nn(-c3cccc(NC(=O)c4ccc(N5CCOCC5)c(C(F)(F)F)c4)c3)cc2-c2ccncc2)c1 | 7.93 µM | > 100 µM |
| OC[C@H]1O[C@@H]2O[C@@](COCc3ccccc3)([C@H](OCc3ccccc3)[C@H]2O)[C@@H]1OCc1ccccc1 | – | 32.9 µM |
| Nc1ncc(-c2ccc3ncnc(Nc4ccc(F)c(Cl)c4)c3c2)cn1 | 3.74 µM | 17.1 µM |
